Test results taken from patent publication US20170049725A9, “COMBINATION CANCER TREATMENT” (WISCONSIN ALUMNI RESEARCH FOUNDATION, priority 2014, published 2017).
Entries after “also recorded” stand apart in the source; their conditions may differ.

How the values were obtained:
GILM2 cells = assay: Crystal violet cell survival assay; conditions: for cytotoxicity of agent alone (cell confluence of surviving cells): metformin 5 mM or agonist 1.5 μg/ml alone
Method: (§1) Top panel: representative images.
(§2) Crystal violet cell survival assay: Cells were seeded overnight on 6-well plates (3×10^5 cells/well). […] Surviving cells were fixed and stained with crystal violet as described in the art. The percentage of cell confluence was determined using NIH Image J software.

[1] = test system: XIAP in MDA-MB-468 breast cancer cells; assay: Immunoblot of XIAP expression; assay type: cell-based; conditions: 5 mM metformin for 72 hours
Method: (§3) Immunoblot of XIAP expression in MDA-MB-231, GILM2 and MDA-MB-468 breast cancer cell lines grown in control media (V) or media containing 5 mM metformin (MF) for 72 hours.
(§4) Without being held to theory, it was postulated that metformin might sensitize cancer cells to TRAIL by downregulating XIAP.

[2] = test system: XIAP in MDA-MB-231 breast cancer cells; assay: Immunoblot of XIAP expression; assay type: cell-based; conditions: 5 mM metformin for 72 hours
Method: as §3, §4

[3] = test system: untransformed MCF-10A-Vector cells; assay: MTS cell viability assay; assay type: cell-based, Human; conditions: metformin 5 mM or agonist 1.5 μg/ml alone
Method: (§5) Untransformed MCF-10A-Vector and transformed MCF-10A-RasV12 cells were untreated or preincubated with metformin (MF, 5 mM) for 48 hours and then treated with TRAIL (1.5 μg/ml), mapatumumab (1.5 μg/ml), or lexatumumab (1.5 μg/ml) for an additional 24 hours. Cell viability was determined by MTS assay and expressed as fold-change relative to untreated controls. **P<0.01 or ***P<0.001 versus controls.
(§6) Cell viability assay: An MTS cell viability assay was performed as known in the art. Briefly, cells were plated overnight in 96-well plates (3×10^3 cells/well). Cells were then untreated or preincubated with metformin (5 mM) for 48 hours before adding lexatumumab (1.5 μg/ml), mapatumumab (1.5 μg/ml) or TRAIL (1.5 μg/ml). Cell viability was assessed 24 hours later. Cell viability was determined in triplicate wells and expressed as the fold-change relative to untreated controls.

[4] = test system: TRAIL-R1 mRNA in GILM2 cells; assay: TRAIL receptor mRNA levels by real-time PCR; assay type: cell-based, Human; conditions: 5 mM metformin for 72 hours, normalized to control media
Method: GILM2 breast cancer cells were cultured in control media or media containing 5 mM metformin (MF) for 72 hours, and total RNA was then isolated. TRAIL-R2 and TRAIL-R1 mRNA levels were measured by real-time PCR and normalized to expression in GILM2 cells grown in control media.
To determine whether metformin sensitizes cancer cells to TRAIL by increasing the expression of its proapoptotic receptors (TRAIL-R1 and TRAIL-R2), GILM2 cells were treated with metformin for 72 hours, and then TRAIL receptor mRNA levels were measured by real-time PCR.

TRAIL-R1 on GILM2 cells = assay: Cell surface expression of TRAIL receptors by flow cytometry; assay type: cell-based, Human; conditions: 5 mM metformin for 72 hours
Method: GILM2 cells were grown in control media or media containing 5 mM metformin for 72 hours, incubated with control IgG, TRAIL-R1 or TRAIL-R2 mAb, and analyzed by flow cytometry.
To determine whether metformin enhances the cell surface expression of TRAIL receptors in cancer cells, GILM2 cells were treated with metformin for 72 hours, and the cell surface expression of TRAIL-R2 and TRAIL-R1 was determined by flow cytometry.

[5] = test system: caspase-3 and PARP in HT29 carcinoma cells; assay: Immunoblotting of caspase activation (procaspase-3, PARP); assay type: cell-based, Human; conditions: metformin 5 mM 48 hours, then TRAIL 1.5 μg/ml 16 hours
[6] = test system: caspase-3 and PARP in DU145 carcinoma cells; assay: as above; assay type: cell-based, Human; conditions: metformin 5 mM 48 hours, then TRAIL 1.5 μg/ml 16 hours
HT29 cells = assay: Crystal violet cell survival assay; assay type: cell-based, Human
From the text: as §1

DU145 cells = assay: Crystal violet cell survival assay; assay type: cell-based, Human
From the text: as §1

[7] = test system: GILM2 breast carcinoma cells; assay: MTS cell viability assay
Method: (§7) Human GILM2, HT29 and DU145 carcinoma cells were untreated or preincubated with metformin (MF, 5 mM) for 48 hours and then treated with TRAIL (1.5 μg/ml), mapatumumab (1.5 μg/ml), or lexatumumab (1.5 μg/ml) for an additional 24 hours. Cell viability was determined by MTS assay and expressed as fold-change relative to untreated controls. *P<0.05, **P<0.01 or ***P<0.001 versus controls.
as §6

[8] = test system: caspase-3 and PARP in MCF-10A-Vector cells; assay: Immunoblotting of caspase activation (procaspase-3, PARP); assay type: cell-based, Human; conditions: metformin 5 mM 48 hours, then TRAIL 1.5 μg/ml 16 hours
[9] = test system: XIAP in GILM2 breast cancer cells; assay: Immunoblot of XIAP expression; assay type: cell-based, Human; conditions: 5 mM metformin for 72 hours
Method: as §3, §4

[10] = test system: transformed MCF-10A-RasV12 cells; assay: MTS cell viability assay; assay type: cell-based, Human
Method: as §5, §6

[11] = test system: caspase-3 and PARP in GILM2 carcinoma cells; assay: Immunoblotting of caspase activation (procaspase-3, PARP); assay type: cell-based, Human; conditions: metformin 5 mM 48 hours, then TRAIL 1.5 μg/ml 16 hours
HT29 colon cancer cells = assay: MTS cell viability assay
Method: as §7, §6

[12] = test system: GILM2-mCherry mammary tumors; assay: Orthotopic model of metastatic triple-negative breast cancer; assay type: in vivo, female NSG mice; conditions: NSG mice; TRAIL 10 mg/kg i.p. daily for two weeks; metformin 250 mg/mL in drinking water; alone or combined
Method: GILM2-mCherry cells (1×10^6) were injected intraductally into both 4th mammary glands of female NOD scid IL2 receptor γ chain knockout (NSG) mice. Mice were randomized into 4 groups (10 mice per group): vehicle, TRAIL alone (10 mg/kg i.p. daily for two weeks), metformin alone (250 mg/mL in drinking water), or the combination of these doses of metformin and TRAIL. Mice were treated with metformin beginning three weeks after tumor inoculation and throughout the study; TRAIL treatment was initiated 3.5 weeks after tumor cell inoculation.
To determine whether metformin augments the antitumor effects of TRAIL in an orthotopic model of metastatic triple-negative breast cancer, female NSG mice bearing established GILM2-mCherry mammary tumors were treated with vehicle, metformin alone, TRAIL alone or the combination of metformin and TRAIL.

[13] = test system: DU145 prostate carcinoma cells; assay: MTS cell viability assay
Method: as §7, §6

[14] = test system: transformed MCF-10A-RasV12 cells; assay: Crystal violet cell survival assay; assay type: cell-based, Human; conditions: metformin 5 mM 48 hours preincubation
Method: as §1, §2

[15] = test system: untransformed MCF-10A-Vector cells; assay: Crystal violet cell survival assay; assay type: cell-based, Human; conditions: metformin 5 mM
Method: as §1, §2

[16] = test system: caspase-3 and PARP in MCF-10A-RasV12 cells; assay: Immunoblotting of caspase activation (procaspase-3, PARP); assay type: cell-based, Human; conditions: metformin 5 mM 48 hours, then TRAIL 1.5 μg/ml 16 hours
[17] = test system: metastatic breast cancer cells; conditions: cited from earlier work
[18] = metformin 5 mM 48 hours preincubation, then TRAIL 1.5 μg/ml 24 hours
[19] = metformin 5 mM 48 hours preincubation, then lexatumumab 1.5 μg/ml 24 hours
[20] = metformin 5 mM 48 hours preincubation, then mapatumumab 1.5 μg/ml 24 hours
[21] = metformin 5 mM or agonist 1.5 μg/ml alone

CN(C)C(=N)NC(=N)N [metformin, N,N-dimethylimidodicarbonimidic diamide]
cytotoxicity of TRAIL (cell confluence of surviving cells) (GILM2 cells; [18]): increased the cytoxicity
cytotoxicity of lexatumumab (cell confluence of surviving cells) (GILM2 cells; [19]): increased the cytoxicity
cytotoxicity of mapatumumab (cell confluence of surviving cells) (GILM2 cells; [20]): increased the cytoxicity; also recorded: more modest
cytotoxicity of agent alone (cell confluence of surviving cells) (GILM2 cells): modest cytoxicity
XIAP protein levels [1]: reduction
XIAP protein levels [2]: reduction
effect on cell viability, agent individually [3]: largely resistant
TRAIL-R1 mRNA levels [4]: modestly reduced
cell surface expression of TRAIL-R1 (TRAIL-R1 on GILM2 cells): did not significantly affect
TRAIL-induced proteolysis of the caspase substrate PARP [5]: increased
TRAIL-induced proteolytic activation of procaspase-3 [5]: augmented
TRAIL-induced proteolysis of the caspase substrate PARP [6]: increased
TRAIL-induced proteolytic activation of procaspase-3 [6]: augmented
cytotoxicity of TRAIL (cell confluence of surviving cells) (HT29 cells; [18]): increased the cytoxicity
cytotoxicity of lexatumumab (cell confluence of surviving cells) (HT29 cells; [19]): increased the cytoxicity
cytotoxicity of mapatumumab (cell confluence of surviving cells) (HT29 cells; [20]): increased the cytoxicity; also recorded: more modest
cytotoxicity of agent alone (cell confluence of surviving cells) (HT29 cells; [21]): more robust cytotoxicity
cytotoxicity of TRAIL (cell confluence of surviving cells) (DU145 cells; metformin 5 mM 48 hours preincubation, then TRAIL 1.5 μg/ml 48 hours): increased the cytoxicity
cytotoxicity of lexatumumab (cell confluence of surviving cells) (DU145 cells; metformin 5 mM 48 hours preincubation, then lexatumumab 1.5 μg/ml 48 hours): increased the cytoxicity
cytotoxicity of mapatumumab (cell confluence of surviving cells) (DU145 cells; metformin 5 mM 48 hours preincubation, then mapatumumab 1.5 μg/ml 48 hours): increased the cytoxicity
cytotoxicity of agent alone (cell confluence of surviving cells) (DU145 cells; [21]): modest cytoxicity
sensitivity to TRAIL (cell viability) [7, 18]: enhanced the sensitivity
sensitivity to lexatumumab (cell viability) [7, 19]: enhanced the sensitivity
cytotoxicity of mapatumumab (cell viability) [7, 20]: did not augment the cytotoxicity
effect on cell viability, agent individually [7, 21]: modest or no significant effect
TRAIL-induced proteolytic cleavage of PARP [8]: little effect
TRAIL-induced proteolytic cleavage of procaspase-3 [8]: little effect
XIAP protein levels [9]: reduction
sensitivity to TRAIL (cell viability) [10, 18]: enhanced the sensitivity
sensitivity to lexatumumab (cell viability) [10, 19]: enhanced the sensitivity
sensitivity to mapatumumab (cell viability) [10, 20]: not
effect on cell viability, agent individually [10, 21]: only modest effects
TRAIL-induced proteolysis of the caspase substrate PARP [11]: increased
TRAIL-induced proteolytic activation of procaspase-3 [11]: augmented
sensitivity to TRAIL (cell viability) (HT29 colon cancer cells; [18]): enhanced the sensitivity
sensitivity to lexatumumab (cell viability) (HT29 colon cancer cells; [19]): enhanced the sensitivity
cytotoxicity of mapatumumab (cell viability) (HT29 colon cancer cells; [20]): did not augment the cytotoxicity
effect on cell viability, agent individually (HT29 colon cancer cells; [21]): modest or no significant effect
lung metastases [12]: no significant effect
mammary tumor growth [12]: no significant effect
sensitivity to TRAIL (cell viability) [13, 18]: enhanced the sensitivity
sensitivity to lexatumumab (cell viability) [13, 19]: enhanced the sensitivity
cytotoxicity of mapatumumab (cell viability) [13, 20]: did not augment the cytotoxicity
effect on cell viability, agent individually [13, 21]: modest or no significant effect
sensitization to TRAIL (cell survival) ([14]; then TRAIL 1.5 μg/ml 24 hours): dramatically sensitized
sensitization to lexatumumab (cell survival) ([14]; then lexatumumab 1.5 μg/ml 24 hours): dramatically sensitized
effect on mapatumumab-induced cell death ([14]; then mapatumumab 1.5 μg/ml 24 hours): only a modest effect
effect of metformin alone on cell survival [15]: little effect
TRAIL-induced proteolytic cleavage of PARP [16]: enhanced
TRAIL-induced proteolytic cleavage of procaspase-3 [16]: enhanced

TRAIL: Soluble recombinant TRAIL corresponding to amino acids 95-281 of the protein, expressed in bacteria, His-tagged
lung metastases [12]: inhibited
mammary tumor growth [12]: inhibited

lexatumumab: fully human IgG1 agonistic monoclonal antibody that binds TRAIL-R2/DR5
cytotoxicity of agent alone (cell confluence of surviving cells) (GILM2 cells): modest cell death
sensitivity to apoptosis induction, compared with mapatumumab [17]: more sensitive
